{"source": "patent US11180771B2", "about": "(priority 2016, dated 2021)", "key": {"[1]": {"test_system": "weeds (all species): Echinochloa species, Schoenoplectus mucronatus, Cypres difformis, Heteranthera limosa, Monochoria vaginalis", "test": "Preflood oxyfluorfen rate test in water-seeded production system (Table 5), percent weeds", "type": "in vivo", "conditions": "treatments before flooding; mutant lines containing ROXY", "description": "Oxyfluorfen resistant rice lines containing mutant allele ROXY, including 17Y3000, 14G3, 14G4, and 15G4, and the oxyfluorfen susceptible parent M-206 were tested at different rates of oxyfluorfen applied preflood in a water-seeded production system to assess seedling vigor, percent weeds, and yield as shown in Table 5. The design was a randomized complete block with 4 replication and 4 rates of oxyfluorfen (GoalTender®) herbicide. The plot size was 10×20 ft. The percent weeds (all species) were visually determined at 50 days after seeding in the plots and the plots were harvested at maturity. The weed species included a mixture of predominant weeds present including barnyard and late watergrass Echinochloa species, rice field bulrush Schoenoplectus mucronatus, small flower umbrella Cypres difformis, ducksalad Heteranthera limosa, and monochoria Monochoria vaginalis."}, "[2]": {"test_system": "weeds (all species): Echinochloa species, Schoenoplectus mucronatus, Cypres difformis, Heteranthera limosa, Monochoria vaginalis", "test": "Drill-seeded herbicide treatment test (Table 6), percent weeds", "type": "in vivo", "conditions": "including combinations with Prowl and Clincher, lines with mutant ROXY allele", "description": "Oxyfluorfen resistant rice lines containing mutant allele ROXY, including 17Y3000, 14G3, 14G4, and 15G4, and the oxyfluorfen susceptible parent M-206 without ROXY were tested by applying oxyfluorfen at different rates and times, and in combination with other herbicides in a drill-seeded production system and evaluated for percent weeds and yield as shown in Table 6. Preflush applications were made directly after drill-seeding just before the first irrigation of the basin and preflood applications occurred just before a permanent flood of basin at about 25 days after seeding. The design was a randomized complete block with 2 replication and treatments of oxyfluorfen (GoalTender®) and combinations of oxyfluorfen with the herbicides Prowl® and Clincher®. The active ingredient of Prowl® is pendimethalin (N-(1-ethylpropyl)-3,4-dimethyl-2,6-dinitrobenzenamine). Clincher® is an herbicide for selective postemergence grass weed control in rice with the active ingredient cyhalofop (2-[4-(4-cyano-2-fluorophenoxy) phenoxy] propanoic acid, butyl ester, (R)). The plot size was 6.4×20 ft. The percent weeds (all species) were visually determined at 50 days after seeding in the plots and the plots were harvested at maturity. […]"}}, "data": [{"smiles": "CCOc1cc(Oc2ccc(C(F)(F)F)cc2Cl)ccc1[N+](=O)[O-]", "note": "[Oxyfluorfen, oxyfluorfen]", "values": [{"measurement": "weed control", "setting": "[1]", "value": "high levels of weed control"}, {"measurement": "weed control", "setting": "[2]", "value": "high levels of weed control"}]}]}
